From PubChem BioAssay AID328 (DTP/NCI, 2004)
Values joined by “and” are separate entries in the source; they are usually repeats but may differ in a detail not shown here. Identical values can stand only once. Inconclusive results and toxic doses are left out.

Test system: BDF1 mice, P388 leukemia ip, median survival T/C
Assay: NCI In Vivo Anticancer Drug Screen. Data for tumor model P388 Leukemia (intraperitoneal) in B6D2F1 (BDF1) mice
Conditions: endpoint: median survival time, higher = longer survival
How it was run: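 Survival ratio, drug arm over vehicle arm, in mice with a transplanted tumour.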

[1] = dose: 100.0 mg/kg/injection, schedule: Q01DX001 (ip), vehicle: saline
[2] = dose: 200.0 mg/kg/injection, schedule: Q01DX001 (ip), vehicle: saline
[3] = dose: 50.0 mg/kg/injection, schedule: Q01DX009 (ip), vehicle: saline
[4] = dose: 100.0 mg/kg/injection, schedule: Q01DX009 (ip), vehicle: saline
[5] = dose: 200.0 mg/kg/injection, schedule: Q01DX009 (ip), vehicle: saline
[6] = dose: 100.0 mg/kg/injection, schedule: Q04DX003 (ip), vehicle: saline with Tween-80
[7] = dose: 200.0 mg/kg/injection, schedule: Q04DX003 (ip), vehicle: saline with Tween-80
[8] = dose: 400.0 mg/kg/injection, schedule: Q04DX003 (ip), vehicle: saline with Tween-80
[9] = dose: 6.25 mg/kg/injection, schedule: Q01DX009 (ip), vehicle: saline with Tween-80
[10] = dose: 12.5 mg/kg/injection, schedule: Q01DX009 (ip), vehicle: saline with Tween-80
[11] = dose: 25.0 mg/kg/injection, schedule: Q01DX009 (ip), vehicle: saline with Tween-80
[12] = dose: 200.0 mg/kg/injection, schedule: Q01DX009 (ip), vehicle: saline with Tween-80
[13] = dose: 6.0 mg/kg/injection, schedule: Q04DX003 (ip), vehicle: saline
[14] = dose: 12.0 mg/kg/injection, schedule: Q04DX003 (ip), vehicle: saline
[15] = dose: 50.0 mg/kg/injection, schedule: Q01DX009 (ip), vehicle: saline with Tween-80
[16] = dose: 100.0 mg/kg/injection, schedule: Q01DX009 (ip), vehicle: Klucel (hydroxypropylcellulose) (HPC)
[17] = dose: 100.0 mg/kg/injection, schedule: Q04DX003 (ip), vehicle: Klucel (hydroxypropylcellulose) (HPC)
[18] = dose: 200.0 mg/kg/injection, schedule: Q04DX003 (ip), vehicle: Klucel (hydroxypropylcellulose) (HPC)
[19] = dose: 400.0 mg/kg/injection, schedule: Q04DX003 (ip), vehicle: Klucel (hydroxypropylcellulose) (HPC)

NC1CCC1N (stereo not given)
T/C (dose: 50.0 mg/kg/injection, schedule: Q01DX001 (ip), vehicle: saline): 110 % of control | T/C [1]: 105 % of control | T/C [2]: 105 % of control

O=C1Nc2ccccc2C12Nc1cccnc1N2 (stereo not given)
T/C (dose: 50.0 mg/kg/injection, schedule: Q01DX001 (ip), vehicle: saline with Tween-80): 91 % of control | T/C (dose: 100.0 mg/kg/injection, schedule: Q01DX001 (ip), vehicle: saline with Tween-80): 87 % of control | T/C (dose: 200.0 mg/kg/injection, schedule: Q01DX001 (ip), vehicle: saline with Tween-80): 91 % of control

O=S(=O)(Oc1ccccc1)C(F)(F)C(F)(F)C(F)(F)C(F)(F)F
T/C [3]: 109 % of control | T/C [4]: 106 % of control | T/C [5]: 109 % of control

N#CN1CC(C(=O)N2CCCCC2)C=C2c3cccc4[nH]cc(c34)CC21 (stereo not given)
T/C (dose: 6.25 mg/kg/injection, schedule: Q01DX009 (ip), vehicle: saline): 106 % of control | T/C (dose: 6.25 mg/kg/injection, schedule: Q04DX003 (ip), vehicle: saline): 114 % of control | T/C (dose: 12.5 mg/kg/injection, schedule: Q01DX009 (ip), vehicle: saline): 94 % of control | T/C (dose: 12.5 mg/kg/injection, schedule: Q04DX003 (ip), vehicle: saline): 113 % of control | T/C (dose: 25.0 mg/kg/injection, schedule: Q04DX003 (ip), vehicle: saline): 106 % of control | T/C [3]: 88 % of control | T/C (dose: 50.0 mg/kg/injection, schedule: Q04DX003 (ip), vehicle: saline): 106 % of control | T/C (dose: 100.0 mg/kg/injection, schedule: Q04DX003 (ip), vehicle: saline): 94 % of control

CC(C)(C)c1ccc(Sc2cccc3c2C(=O)c2c(Cl)cccc2C3=O)cc1
T/C [6]: 90 % of control | T/C [7]: 88 % of control | T/C [8]: 92 % of control

O=C1COCC(=O)C1
T/C [1]: 96 % of control | T/C [2]: 107 % of control | T/C (dose: 400.0 mg/kg/injection, schedule: Q01DX001 (ip), vehicle: saline): 100 % of control

CC(C)C(C)/C=C\C(C)C1CCC2C3=CCC4CC(O)CCC4(C)C3CCC21C (stereo not given)
T/C [9]: 100 % of control | T/C [10]: 101 % of control | T/C [11]: 94 % of control

CC(C)C1CCC2=C(CCC3C(C)(C(=O)O)CCCC23C)C1 (stereo not given)
T/C [4]: 109 % of control | T/C [5]: 100 % of control | T/C (dose: 400.0 mg/kg/injection, schedule: Q01DX009 (ip), vehicle: saline): 100 % of control

CCCCC(=O)NN
T/C (dose: 12.5 mg/kg/injection, schedule: Q04DX003 (ip), vehicle: saline with Tween-80): 99 % of control | T/C (dose: 25.0 mg/kg/injection, schedule: Q04DX003 (ip), vehicle: saline with Tween-80): 103 % of control | T/C (dose: 50.0 mg/kg/injection, schedule: Q04DX003 (ip), vehicle: saline with Tween-80): 110 % of control | T/C [6]: 100 % of control | T/C [7]: 91 % of control

CC1CN1P(=S)(Oc1ccccc1)N1CC1C (stereo not given)
T/C [12]: 150 % of control | T/C (dose: 264.0 mg/kg/injection, schedule: Q01DX009 (ip), vehicle: saline with Tween-80): 122 % of control | T/C (dose: 300.0 mg/kg/injection, schedule: Q01DX009 (ip), vehicle: saline with Tween-80): 155 % of control | T/C (dose: 400.0 mg/kg/injection, schedule: Q01DX009 (ip), vehicle: saline with Tween-80): 150 % of control

CCOC(=O)CCc1nc(C(=O)OCC)c(C)c2nnnn12
T/C [6]: 99 % of control | T/C [7]: 108 % of control | T/C [8]: 95 % of control

NCC(O)COc1ccccc1N (stereo not given)
T/C (dose: 3.0 mg/kg/injection, schedule: Q01DX009 (ip), vehicle: saline): 100 % of control | T/C (dose: 3.0 mg/kg/injection, schedule: Q04DX003 (ip), vehicle: saline): 108 % of control and 109 % of control | T/C (dose: 6.0 mg/kg/injection, schedule: Q01DX009 (ip), vehicle: saline): 100 % of control | T/C [13]: 95 % of control and 109 % of control | T/C (dose: 12.0 mg/kg/injection, schedule: Q01DX009 (ip), vehicle: saline): 96 % of control | T/C [14]: 100 % of control and 113 % of control

c1ccc(C(Nc2nccs2)Nc2nccs2)cc1
T/C [10]: 112 % of control | T/C [11]: 108 % of control | T/C [15]: 96 % of control and 108 % of control

CC(=O)NNc1ccc([N+](=O)[O-])cc1
T/C [16]: 100 % of control | T/C [17]: 105 % of control | T/C (dose: 200.0 mg/kg/injection, schedule: Q01DX009 (ip), vehicle: Klucel (hydroxypropylcellulose) (HPC)): 90 % of control | T/C [18]: 90 % of control | T/C (dose: 400.0 mg/kg/injection, schedule: Q01DX009 (ip), vehicle: Klucel (hydroxypropylcellulose) (HPC)): 90 % of control | T/C [19]: 90 % of control

CC12CCC3C(CCC4=CC(=O)CCC43C)C1CCC(=O)O2 (stereo not given)
T/C (dose: 12.5 mg/kg/injection, schedule: Q01DX009 (ip), vehicle: Klucel (hydroxypropylcellulose) (HPC)): 95 % of control | T/C (dose: 25.0 mg/kg/injection, schedule: Q01DX009 (ip), vehicle: Klucel (hydroxypropylcellulose) (HPC)): 95 % of control | T/C (dose: 50.0 mg/kg/injection, schedule: Q01DX009 (ip), vehicle: Klucel (hydroxypropylcellulose) (HPC)): 104 % of control | T/C [16]: 95 % of control | T/C [17]: 109 % of control | T/C [18]: 90 % of control | T/C [19]: 90 % of control

[O-][n+]1ccccc1Br
T/C (dose: 50.0 mg/kg/injection, schedule: Q04DX003 (ip), vehicle: water): 91 % of control | T/C (dose: 100.0 mg/kg/injection, schedule: Q04DX003 (ip), vehicle: water): 91 % of control

C/C=C1\C[N+]2(C)CCc3c([nH]c4ccccc34)C2CC1Cc1nccc2c1[nH]c1ccccc12 (stereo not given)
T/C (dose: 1.0 mg/kg/injection, schedule: Q04DX003 (ip), vehicle: saline): 107 % of control | T/C (dose: 2.0 mg/kg/injection, schedule: Q04DX003 (ip), vehicle: saline): 98 % of control | T/C (dose: 4.0 mg/kg/injection, schedule: Q04DX003 (ip), vehicle: saline): 98 % of control | T/C [13]: 102 % of control | T/C [14]: 113 % of control | T/C (dose: 24.0 mg/kg/injection, schedule: Q04DX003 (ip), vehicle: saline): 118 % of control | T/C (dose: 48.0 mg/kg/injection, schedule: Q04DX003 (ip), vehicle: saline): 110 % of control

CC([N+](=O)[O-])S(=O)(=O)c1ccc(Cl)cc1 (stereo not given)
T/C (dose: 50.0 mg/kg/injection, schedule: Q01DX001 (ip), vehicle: saline sonified): 95 % of control | T/C (dose: 100.0 mg/kg/injection, schedule: Q01DX001 (ip), vehicle: saline sonified): 100 % of control | T/C (dose: 200.0 mg/kg/injection, schedule: Q01DX001 (ip), vehicle: saline sonified): 100 % of control

COC(=O)CCC(C)C1CCC2C3CCC4CC(SC(=N)N)CCC4(C)C3CC(O)C12C (stereo not given)
T/C [15]: 91 % of control | T/C (dose: 100.0 mg/kg/injection, schedule: Q01DX009 (ip), vehicle: saline with Tween-80): 89 % of control | T/C [12]: 89 % of control

O/C(=C\C(=S)S)c1ccc(Cl)cc1
T/C (dose: 0.39 mg/kg/injection, schedule: Q04DX003 (ip), vehicle: saline with Tween-80): 100 % of control | T/C (dose: 0.78 mg/kg/injection, schedule: Q01DX009 (ip), vehicle: saline with Tween-80): 97 % of control | T/C (dose: 0.78 mg/kg/injection, schedule: Q04DX003 (ip), vehicle: saline with Tween-80): 92 % of control and 106 % of control (2×) | T/C (dose: 1.56 mg/kg/injection, schedule: Q01DX009 (ip), vehicle: saline with Tween-80): 118 % of control | T/C (dose: 1.56 mg/kg/injection, schedule: Q04DX003 (ip), vehicle: saline with Tween-80): 97 % of control and 113 % of control | T/C (dose: 3.12 mg/kg/injection, schedule: Q01DX009 (ip), vehicle: saline with Tween-80): 106 % of control | T/C (dose: 3.12 mg/kg/injection, schedule: Q04DX003 (ip), vehicle: saline with Tween-80): 95 % of control and 100 % of control and 120 % of control | T/C [9]: 112 % of control | T/C (dose: 6.25 mg/kg/injection, schedule: Q04DX003 (ip), vehicle: saline with Tween-80): 88 % of control and 103 % of control | T/C [10]: 86 % of control

CC(CCC(=O)NC12CC3CC(CC(C3)C1)C2)C1CCC2C3CCC4CC(OC=O)CCC4(C)C3CC(OC=O)C12C (stereo not given)
T/C (dose: 12.5 mg/kg/injection, schedule: Q04DX002 (ip), vehicle: saline with Tween-80): 91 % of control | T/C (dose: 25.0 mg/kg/injection, schedule: Q04DX002 (ip), vehicle: saline with Tween-80): 110 % of control
